Measurements from patent US7638482B2, “Protein kinase C zeta as a drug target for arthritis and other inflammatory diseases” (Wyeth, priority 2003, dated 2009).
Like-named read-outs stand apart in the source and are kept apart here. Where a SMILES comes first, the peptide text is derived from it. The star is where a group is joined. Myristoyl = CCCCCCCCCCCCCC(=O)*

Key:
[1] = tested on: primary bovine chondrocytes; test: Trypan blue staining of chondrocytes and lactate assays on culture media (cytotoxicity); assay type: cell-based
Procedure: Trypan blue staining of the chondrocytes and lactate assays on the culture media were performed to rule out cytotoxicity as a possible explanation for the results. […] In addition, control peptides were synthesized and tested in the same assay system to address the possibility that nonspecific effects may be causing the observed results.

[2] = tested on: primary bovine chondrocytes; test: Proteoglycan degradation in primary bovine chondrocyte pellet culture (release into media / retention in cell pellet, DMMB); assay type: cell-based
Procedure: Full-thickness bovine articular cartilage slices were dissected under aseptic conditions, rinsed four times in PBS, and subjected to pronase and collagenase digestion (1 mg/ml pronase (Calbiochem, San Diego, Calif.) for 30 minutes and 1 mg/ml Collagenase P (Roche Diagnostics Corporation, Indianapolis, Ind.) overnight at 37° C. in DME without serum) to isolate chondrocytes embedded in the cartilage extracellular matrix. The digest was filtered through a 70 micron Falcon™ cell strainer (BD Biosciences, San Jose, Calif.) and washed twice in DME containing 10% FBS. Typically 2-4×10^8 cells were obtained from a calf metacarpophalangeal joint surface. Cells were plated in monolayer in six-well plates at density of 2×10^6 cells/well. For pellet culture, cells were resuspended in growth media [HL-1 media (Cambrex Corporation, East Rutherford, N.J.), penicillin+streptomycin, glutamine, 50 μg/ml ascorbate, and 10% FBS] at 1×10^6 cells/ml, and 1 ml aliquots of cells were transferred to 15 ml sterile Falcon centrifuge tubes. The cells were centrifuged at 200×g for 5 min at 4° C. and the resulting cell pellets were cultured as described previously (Xu et al. (1996) Endocrinology 137:3557-65). Cell media were collected and stored for collagen and proteoglycan assays, and cells were refed with fresh media (3 ml/well, 1 ml/tube) every 3-4 days. Pellet cultures were maintained for 3 weeks, at which time the pellets were harvested and either digested with 0.5 ml of 300 μg/ml papain at 65° C. for 3-6 hrs for dimethylmethylene blue (DMMB) dye assays or prepared for histology.
Cells were incubated with the inhibitor for 3 hrs prior to the addition of either TNF or IL-1. […] SN50M, which served as a negative control, is the same peptide with amino acid changes to abolish NF-κB-blocking activity. SN50 and SN50M are available from, e.g., Biomol Research Laboratories, Inc. (Plymouth Meeting, Pa.).
To determine whether ζPKC inhibitors can inhibit TNF-mediated proteoglycan degradation, primary bovine chondrocytes were cultured with various concentrations of TNF for 5 days with or without (1) the myristoylated ζPKC peptide pseudosubstrate [herein termed “2089”; synthesized in-house; equivalent to SEQ ID NO:6; available from, e.g., BioSource International, Inc., USA (Camarillo, Calif.)], or (2) the small molecule inhibitor Ro-31-8220 (Sigma-RBI, Natick, Mass.). The inhibitors were added 3 hrs prior to addition of TNF.
To determine whether myristoylated ζPKC peptide pseudosubstrate 2089 can inhibit cytokine-mediated proteoglycan degradation in a dose-dependent manner, primary bovine chondrocytes were cultured with either 10 ng/ml TNF or 1 ng/ml IL-1 for 4 days after addition of various concentrations of 2089. […]

ζPKC = molecular target: T1, ζPKC (Homo sapiens, UniProt Q05513); conditions: literature (Toullec et al. 1991); cited from earlier work
T1 sequence (Q05513 1-592): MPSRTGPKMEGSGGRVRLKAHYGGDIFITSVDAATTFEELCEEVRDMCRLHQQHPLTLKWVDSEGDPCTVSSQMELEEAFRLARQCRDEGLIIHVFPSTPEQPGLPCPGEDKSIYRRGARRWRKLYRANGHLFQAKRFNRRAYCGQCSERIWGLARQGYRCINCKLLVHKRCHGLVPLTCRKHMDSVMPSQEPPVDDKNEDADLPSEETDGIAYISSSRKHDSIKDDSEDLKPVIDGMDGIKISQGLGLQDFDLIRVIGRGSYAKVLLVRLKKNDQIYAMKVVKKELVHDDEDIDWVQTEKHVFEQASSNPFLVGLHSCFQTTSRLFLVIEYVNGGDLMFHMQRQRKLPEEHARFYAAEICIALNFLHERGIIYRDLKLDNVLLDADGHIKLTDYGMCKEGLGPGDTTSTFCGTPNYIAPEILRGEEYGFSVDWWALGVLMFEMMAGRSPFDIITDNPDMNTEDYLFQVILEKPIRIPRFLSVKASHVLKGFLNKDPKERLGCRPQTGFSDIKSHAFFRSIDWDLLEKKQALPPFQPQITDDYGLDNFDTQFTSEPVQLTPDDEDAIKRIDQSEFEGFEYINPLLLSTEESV

NF-κB = NF-κB luciferase reporter assay in immortalized human chondrocyte cell line C28/I2; assay type: cell-based; conditions: BIS 20 μM; TNFα 1 or 10 ng/ml; C28/I2 cells; inhibitor added 2 hrs before TNF; FIG. 8
Procedure: Activation of NF-κB was measured in an immortalized human chondrocyte cell line (C28/I2; see, e.g., Finger et al. (2003) Arthritis Rheum. 48:3395-403; Goldring (1994) J. Clin. Invest. 94:2307-16) into which a luciferase reporter gene under the control of an NF-κB response element was introduced. The cells were cultured in DMEM/Ham's F12 supplemented with 10% FBS; the cells were split into 96 wells (1×10^5 cells/well) and infected with adenovirus expressing NF-κB luciferase construct (100 MOI) 24 hrs prior to assay. The chondrocytes were incubated with inhibitors in serum-free media 2 hrs prior to the addition of TNF. […] BIS (20 μM), a pan-PKC inhibitor, was added to some cultures, and CC (8 μM), a competitive inhibitor of the phorbol ester binding site in some forms of PKC (but not the a typical PKCs, e.g., ζPKC), was added to other cultures.

In the case of `Cn1cc(C2=C(c3cn(CCCSC(=N)N)c4ccccc34)C(=O)NC2=O)c2ccccc21` [Ro-31-8220], the “cytotoxicity (trypan blue staining, lactate assays)” value ([1]; at the doses used in the proteoglycan degradation experiments) is reported as “do not cause appreciable cytotoxicity”, the TNF-mediated proteoglycan degradation ([2]; 5 μM Ro-31-8220, 5 days, FIG. 3) is reported as “relatively ineffective” and the TNF-mediated proteoglycan degradation ([2]; 10 μM Ro-31-8220, TNF 10 and 100 ng/ml, 5 days, FIG. 3) is reported as “significantly inhibited”. For the same molecule, the “proteoglycan degradation in the absence of TNF” value ([2]; no TNF, 5 days, FIG. 3) was “inhibited proteoglycan degradation”.
In the case of bisindolylmaleimide, the “inhibition of PKC isoforms including ζPKC” value (ζPKC) is given as “block the activity of all isoforms of PKC”, the “TNFα-mediated activation of NF-κB (relative luciferase activity)” value (NF-κB) is given as “blocked” and the “TNFα-mediated release of proteoglycan into the media” value ([2]; BIS at 20-40 μM, TNFα 100 ng/ml, FIG. 7) is given as “blocked”.
For `CCCCCCCCCCCCCC(=O)N[C@@H](CO)C(=O)N[C@H](C(=O)N[C@@H](Cc1ccc(O)cc1)C(=O)N[C@@H](CCCNC(=N)N)C(=O)N[C@@H](CCCNC(=N)N)C(=O)NCC(=O)N[C@@H](C)C(=O)N[C@@H](CCCNC(=N)N)C(=O)N[C@@H](CCCNC(=N)N)C(=O)N[C@@H](Cc1c[nH]c2ccccc12)C(=O)N[C@@H](CCCNC(=N)N)C(=O)N[C@@H](CCCCN)C(=O)N[C@@H](CC(C)C)C(=O)O)[C@@H](C)CC` [compound 2089] (Myristoyl-SIYRRGARRWRKL-OH), the “cytotoxicity (trypan blue staining, lactate assays)” value [1] was “do not cause appreciable cytotoxicity”.
